Reference: ChEMBL document CHEMBL3244348, “Antiallergic agents. Xanthone-2,7-dicarboxylic acid derivatives” (1977)

Tested on: Rattus norvegicus
Assay: Antiallergic activity in homocytotropic antiovalbumin antiserum-injected Sprague-Dawley rat assessed as inhibition of passive cutaneous anaphylaxis wheal reaction at 100 mg/kg, po administered 1 hr prior to ovalbumin challenge measured 20 mins after antigen challenge
Type: functional

| SMILES | inhibition in vivo at 100 mg/kg |
| --- | --- |
| O=C(O)c1ccc2oc3ccc(C(=O)O)cc3c(=O)c2c1 | 1% |
| CCOC(=O)c1ccc2oc3ccc(C(=O)OCC)cc3c(=O)c2c1 | 8% |
| NC(=O)c1ccc2oc3ccc(C(N)=O)cc3c(=O)c2c1 | 34% |
| CNC(=O)c1ccc2oc3ccc(C(=O)NC)cc3c(=O)c2c1 | 19% |
| CCCNC(=O)c1ccc2oc3ccc(C(=O)NCCC)cc3c(=O)c2c1 | 19% |
| COCCOCCCNC(=O)c1ccc2oc3ccc(C(=O)NCCCOCCOC)cc3c(=O)c2c1 | 19% |
| CN(C)C(=O)c1ccc2oc3ccc(C(=O)N(C)C)cc3c(=O)c2c1 | 69% |
| CCN(CC)C(=O)c1ccc2oc3ccc(C(=O)N(CC)CC)cc3c(=O)c2c1 | 53% |
| O=C(c1ccc2oc3ccc(C(=O)N(C4CCCCC4)C4CCCCC4)cc3c(=O)c2c1)N(C1CCCCC1)C1CCCCC1 | 42% |
| C=CCN(CC=C)C(=O)c1ccc2oc3ccc(C(=O)N(CC=C)CC=C)cc3c(=O)c2c1 | 51% |
| O=C(c1ccc2oc3ccc(C(=O)N4CCCCC4)cc3c(=O)c2c1)N1CCCCC1 | 57% |
| O=C(c1ccc2oc3ccc(C(=O)N4CC5CCC(CC5)C4)cc3c(=O)c2c1)N1CC2CCC(CC2)C1 | 48% |
| O=C(c1ccc2oc3ccc(C(=O)N4CCOCC4)cc3c(=O)c2c1)N1CCOCC1 | 42% |
